Experimental data published in patent US6673902B2, “Cyclin D binding factor, and uses thereof” (St. Jude Children's Research Hospital, priority 1996, dated 2004).

What was measured:
recombinant DMP1 [1] = biological target: T1, recombinant DMP1 (Mus musculus, UniProt Q8CE22); test: EMSA competition with Sf9 lysates producing recombinant DMP1; format: binding; conditions: excess unlabeled oligonucleotide
T1 construct: made in house; host or cells: Sf9 insect cells, pAcYM1 baculovirus vector; used as crude lysate (~4 ng DMP1 per reaction)
T1 sequence (Q8CE22 1-761): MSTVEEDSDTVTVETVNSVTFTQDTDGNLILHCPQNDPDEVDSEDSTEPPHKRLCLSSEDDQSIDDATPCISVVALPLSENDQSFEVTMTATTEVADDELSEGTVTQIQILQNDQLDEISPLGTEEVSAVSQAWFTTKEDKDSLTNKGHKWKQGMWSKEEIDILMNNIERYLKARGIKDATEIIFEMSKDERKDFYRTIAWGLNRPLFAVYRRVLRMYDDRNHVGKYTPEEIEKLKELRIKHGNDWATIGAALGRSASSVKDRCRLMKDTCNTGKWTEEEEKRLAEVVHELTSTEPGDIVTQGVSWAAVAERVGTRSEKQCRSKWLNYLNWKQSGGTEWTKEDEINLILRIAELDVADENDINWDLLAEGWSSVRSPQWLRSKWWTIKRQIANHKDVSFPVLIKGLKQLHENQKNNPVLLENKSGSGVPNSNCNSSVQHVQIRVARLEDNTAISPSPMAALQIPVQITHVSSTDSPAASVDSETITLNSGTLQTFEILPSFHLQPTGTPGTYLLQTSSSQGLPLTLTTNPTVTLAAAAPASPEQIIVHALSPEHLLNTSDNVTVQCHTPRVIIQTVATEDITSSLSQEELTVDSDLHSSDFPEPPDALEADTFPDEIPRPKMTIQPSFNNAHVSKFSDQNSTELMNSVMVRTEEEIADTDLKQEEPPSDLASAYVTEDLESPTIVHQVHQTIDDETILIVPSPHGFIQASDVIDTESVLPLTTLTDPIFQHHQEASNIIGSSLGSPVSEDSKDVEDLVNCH
Description: (§1) Double-stranded oligonucleotides containing potential DMP1 binding sites (BS1 and BS2) and mutated versions (M1-M4) (FIG. 5B) are end-labeled with ^32P using the Klenow fragment of DNA polymerase and α-^32P-dATP (6000 Ci/mmol; Dupont NEN) (8). Nuclear extracts from mouse NIH-3T3 or CTLL cells are prepared with buffer containing 0.4 M NaCl (2). Mammalian cell extracts (15 μg protein) or Sf9 lysates (corresponding to 5×10^2 infected cells) containing ˜4 ng recombinant DMP1 are mixed with 3 ng of ^32P-labeled probe (1×10^5 cpm) in 15 ul Binding buffer containing 2.5 μg of poly(dI-dC) and 2.5 μg BSA and incubated at 4° C. for 30 minutes. For competition experiments, the indicated amounts of unlabeled oligonucleotides are added to the reactions before addition of the labeled probe. In some experiments, a bacterially produced GST-Ets2 fusion protein containing the complete Ets2 DNA-binding domain (10) is used in place of Sf9 extracts containing recombinant DMP1. Protein-DNA complexes are separated on nondenaturing 4% polyacrylamide gels as described (8). Where indicated, antiserum to DMP1 together with 2.5 μg salmon testis DNA (Sigma; used to reduce nonspecific DNA binding activity caused by serum addition) is preincubated with extracts for 30 minutes at 4° C. prior to initiation of binding reactions. Immune complexes are either removed by adsorption to protein A-Sepharose beads (immunodepletion experiments) or are allowed to remain (“supershift” experiments).
(§2) Using electrophoretic mobility shift assays (EMSA) performed after mixing a titrated excess (3 ng) of ^32P-end labeled BS1 probe with Sf9 lysates producing DMP1 (˜4 ng recombinant protein per reaction), a BS1-containing protein complex is detected that was competed with an excess of unlabeled BS1 oligonucleotide but not with mutant oligonucleotides M1 and M2 (FIG. 6A). […] More subtle mutations within this region may be tolerated, because high concentrations of M4 competed for BS1 binding to both Ets2 and DMP1 in subsequent studies (FIG. 5B and see below). DMP1 also binds a BS2 probe, and the binding is competed by excess BS2 or BS1 (FIG. 6B). In agreement with the site selection frequencies (FIG. 5A), binding of ^32P-BS1 under equivalent conditions was competed more efficiently by excess unlabeled BS1 than by BS2 (FIG. 6B). […] In agreement, Ets2 binding to BS1 could be competed with excess unlabeled BS1 and M3, but not by BS2 (FIG. 6C). Therefore, although both DMP1 and Ets2 can each bind to BS1 sequences, their exclusive interactions with BS2 and M3, respectively, help to distinguish DMP1 and Ets binding activities (summarized in FIG. 5B).

GST-Ets2 fusion protein = biological target: T2, GST-Ets2 fusion protein (Homo sapiens, UniProt P15036); test: EMSA competition with bacterial GST-Ets2 fusion protein; format: binding; conditions: excess unlabeled oligonucleotide
T2 construct: made in house; host or cells: bacteria
T2 sequence (P15036 363-443 limits assumed): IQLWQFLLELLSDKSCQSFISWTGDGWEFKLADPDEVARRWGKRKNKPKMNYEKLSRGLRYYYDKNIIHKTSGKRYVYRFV
Description: as §1, §2

recombinant DMP1 [2] = biological target: T1, recombinant DMP1; test: EMSA competition, recombinant DMP1 and 281 base pair ARF promoter fragment; format: binding; conditions: 200-fold excess of unlabelled oligonucleotide
Description: Electrophoretic mobility shift assay (EMSA). Recombinant DMP1 protein was prepared in Sf9 cells [Hirai and Sherr, Mol. Cell. Biol. 16:6457-6467 (1996)]. Purified bacterial proteins representing the Ets1 DNA binding domain or full-length Ets1 [Inoue, et al., J. Biol. Chem. 273:29188-29194 (1998)] were used. EMSAs were performed [Inoue and Sherr, Mol. Cell. Biol. 18:1590-1600 (1998)] using either a 281-bp genomic fragment (−225 to +56) or double-stranded oligonucleotides containing the DMP1/Ets site obtained by annealing oligonucleotide 5′-[…]-3′ (sense strand SEQ ID NO:41); DMP1/Ets consensus sequence underlined) with a complementary antisense strand. For competition experiments, a 200-fold excess of unlabelled oligonucleotides was added to reaction mixtures before the probe. To verify the identity of the proteins in shifted complexes, reaction mixtures were incubated with control nonimmune rabbit serum (NRS), serum AF [Hirai and Sherr, Mol. Cell. Biol. 16:6457-6467 (1996)] and M-10 (both to DMP1 carboxylterminal epitopes), S-19 (DMP1 N-terminus), or C-20 (Ets1 C-terminus) before electrophoresis. M-10, S-19, and C-20 were from Santa Cruz Biotechnology.
The nucleotide sequence of the proximal promoter region of the murine ARF gene relative to the transcription initiation site as defined by S1 mapping analysis was determined (FIG. 13). […]

32P-BS2 Probe = test: EMSA with 32P-BS2 probe on transfection lysates of NIH-3T3 fibroblasts; format: binding; conditions: 32P labeled BS2 probe
Description: as §1
A series of deletion mutants and a point mutant of DMP1, K319E, (in which the lysine at position 319 of SEQ ID NO:1 is replaced by a glutamic acid) were prepared and used to determine the DNA-binding domain of DMP1 by electrophoretic mobility shift assay (EMSA) using a ^32P labeled BS2 probe. The DNA-binding domain of DMP1 was mapped to a central region containing the three MYB repeats plus adjacent flanking sequences: a BstEII to NcoI fragment encoding amino acids 87-458 of SEQ ID NO:1 (Table 1). This region alone was necessary and sufficient for DNA binding.

[3] = tested on: DMP1-responsive promoter (pGL2BS2); test: Transactivation of luciferase reporter plasmid under control of a DMP1-responsive promoter in NIH-3T3 fibroblasts; format: cell-based, mouse; conditions: expression vector 3 μg/10 ml, pGL2BS2 8 μg/10 ml; vector without insert set to 1.0
From the text: Coexpression of a D-type cyclin with DMP1 overrides the ability of DMP1 to transactivate a luciferase gene under the control of an artificial DMP1-responsive promoter (Table 4), as well as the ability of DMP1 to inhibit cell growth.

NIH-3T3 fibroblasts = test: BrdU incorporation in transfected NIH-3T3 fibroblasts; format: cell-based, mouse
Description: BrdU is added to NIH-3T3 cells after the experimental treatment and the cells were incubated for twenty-two hours in DMEM plus 10% fetal calf serum (FCS). The cells were then stained for DMP1 expression and/or BrdU incorporation. The nucleic acids encoding the wildtype DMP1 and the deletion and point mutants had been constructed so as to express the corresponding proteins with Flag-tags. To stain for DMP1 expression, mouse monoclonal anti-Flag antibodies (12 μg/ml) [Kodak] were incubated with the cells in TBS-Ca^+ without FCS for one hour at room temperature. After washing the cells, horse anti-mouse biotinylated antibodies at a 1:500 dilution were added to the cells in TBS plus 5% FCS and incubated for 30 minutes at room temperature. After washing the cells, strefptavidin linked to Texas red [Amersham] was then added at a 1:500 dilution for 30 minutes at room temperature. To stain for BrdU incorporation, 1.5N HCl was added to the cells for ten minutes at room temperature to denature the DNA. After washing the cells, sheep anti-BrdU antibodies [Fitzgerald] at a 1:12 dilution were then added for one hour at room temperature. After washing the cells, rabbit FITC-conjugated anti-sheep antibodies [Vector] at 1:100 dilution was then incubated for 30 minutes at room temperature.
NIH-3T3 cells were placed on cover slides and transfected with the expression vectors (pFLEX-DMP1 or the corresponding vector containing the deletion or point mutants of mouse DMP1 plus or minus cyclin D or E) for fourteen hours. The cells were then washed twice and DMEM plus 10% FCS was added and the cells incubated for eight hours. Half of the cells were starved by washing twice with 0.1% FCS, and then incubated for twenty-four hours in 0.1% FCS in DMEM. The remaining cells were not starved but were incubated for twenty-four hours in DMEM plus 10% FCS without washing. BrdU was added to both groups of cells and the cells were incubated for twenty-two hours in DMEM plus 10% FCS.
The cells were then restimulated to enter the cell cycle synchronously with DMEM plus 10% FCS. At the same time, 5′-Bromo-2′ Deoxyuridine (BrdU) was added to the medium. The cells were fixed 22 hours later in methanol acetone (1:1) and stained for BrdU incorporation and DMP1 expression as described in the Materials and Methods.

[4] = tested on: 281 bp ARF promoter fragment; test: Transactivation of ARF promoter-luciferase reporter in NIH-3T3 cells; format: cell-based, mouse; conditions: NIH-3T3, 281 bp ARF promoter fragment-luciferase
Description: Transactivation assays. NIH-3T3 cells were transfected with 4 μg of pGL2-ARFpro BamHI or its DMP1 binding site mutant, with or without increasing amount of pFLEX-DMP1, pEVRFO-Ets1, pCMV-Ets2, pRcRSV-Elfl, pdEB-Fli1, p(IEB-EWS-Fli1 or pCMV-E2F-1 (89-437), and 4 μg β-actin SEAP control vectors [Inoue and Sherr, Mol. Cell. Biol. 18: 1590-1600 (1998); Inoue et al., J. Biol. Chem. 273:29188-29194 (1998); Davis and Roussel, Gene 171:265-269 (1996); Baily et al., Mol. Cell. Biol. 14:3230-3241 (1994)]. Transfections and normalization of luciferase levels with internal control SEAP levels were performed as described [Inoue and Sherr, Mol. Cell. Biol. 18:1590-1600 (1998)].
Similarly, DMP1 deletion mutants defective in transactivation [Inoue and Sherr, Mol. Cell. […] Mutation of the DMP1 binding site within the ARF promoter [changing CCCGGATGC, (SEQ ID NO:33) to CCCGTCGAC, (SEQ ID NO:42)] also completely abolished transactivation by wild-type DMP1 (FIG. 14C, mutant reporter). Therefore, sequences within the −189 to −181 ARF promoter segment were the only ones responsible for DMP1-mediated transactivation. Although Ets1 could bind to a 23 base pair oligonucleotide containing the DMP1 consensus site (FIG. 14B), several Ets proteins were unable to induce significant reporter gene expression from the more complex 281 base pair ARF promoter (FIG. 14C). […]

| Substance | competition for 32P-BS1 probe binding to DMP1 (recombinant DMP1 [1]) | competition for BS2 probe binding to DMP1 (recombinant DMP1 [1]) | competition for BS1 binding to Ets2 (GST-Ets2 fusion protein) | competition for DMP1 binding to the 281 base pair ARF promoter fragment (recombinant DMP1 [2]) | affinity for the DNA probe relative to wildtype (32P-BS2 Probe) | Luciferase Activity [3] | % Cells BrdU Positive (NIH-3T3 fibroblasts; Table 2, expression vector 3 μg/10 ml) [%] | % Cells BrdU Positive in 10% FCS (NIH-3T3 fibroblasts; nonstarved cells, additive None, labeled 22 hours) [%] | % Cells BrdU Positive in 0.1% FCS (NIH-3T3 fibroblasts; starved cells, additive None, labeled 22 hours) [%] | ARF promoter reporter gene expression [4] |
| --- | --- | --- | --- | --- | --- | --- | --- | --- | --- | --- |
| oligonucleotide BS2: probe/competitor BS2, SEQ ID NO:11, DMP1 binding site CCCGTATGT with GTA core (DNA AATTGACCCGTATGTAGGTACGC; chemistry not given here) | competed | competed | not | completely inhibited | – | – | – | – | – | – |
| M11: DMP1 point mutant, lysine at position 319 of SEQ ID NO:1 replaced by glutamic acid | – | – | – | – | about 2% | 1.1 | 48 | 54 | 47 | had no activity |
